Source: ChEMBL document CHEMBL2074318, “Expression, transport properties, and chromosomal location of organic anion transporter subtype 3” (Am J Physiol Gastrointest Liver Physiol, 2000)

Tests used:
Format in all cases: functional, cell-based
[1] = molecular target: T1, Ileal sodium/bile acid cotransporter (Rattus norvegicus, UniProt Q62633); test: TP_TRANSPORTER: uptake in ASBT-expressing COS cells; conditions: monkey
T1 sequence (Q62633 whole entry): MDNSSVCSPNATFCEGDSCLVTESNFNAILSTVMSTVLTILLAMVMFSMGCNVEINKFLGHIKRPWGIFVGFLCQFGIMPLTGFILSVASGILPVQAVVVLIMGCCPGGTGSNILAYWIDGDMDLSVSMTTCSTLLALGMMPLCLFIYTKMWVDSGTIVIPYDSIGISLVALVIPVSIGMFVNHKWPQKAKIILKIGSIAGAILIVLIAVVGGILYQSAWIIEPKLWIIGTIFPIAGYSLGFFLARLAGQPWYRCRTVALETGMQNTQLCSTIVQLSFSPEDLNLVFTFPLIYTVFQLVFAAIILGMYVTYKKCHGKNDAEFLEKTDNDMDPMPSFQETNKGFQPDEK

[2] = molecular target: T2, Solute carrier organic anion transporter family member 1A5 (Rattus norvegicus, UniProt O88397); test: TP_TRANSPORTER: uptake in Oatp3-expressing COS cells; conditions: monkey
T2 sequence (O88397 whole entry): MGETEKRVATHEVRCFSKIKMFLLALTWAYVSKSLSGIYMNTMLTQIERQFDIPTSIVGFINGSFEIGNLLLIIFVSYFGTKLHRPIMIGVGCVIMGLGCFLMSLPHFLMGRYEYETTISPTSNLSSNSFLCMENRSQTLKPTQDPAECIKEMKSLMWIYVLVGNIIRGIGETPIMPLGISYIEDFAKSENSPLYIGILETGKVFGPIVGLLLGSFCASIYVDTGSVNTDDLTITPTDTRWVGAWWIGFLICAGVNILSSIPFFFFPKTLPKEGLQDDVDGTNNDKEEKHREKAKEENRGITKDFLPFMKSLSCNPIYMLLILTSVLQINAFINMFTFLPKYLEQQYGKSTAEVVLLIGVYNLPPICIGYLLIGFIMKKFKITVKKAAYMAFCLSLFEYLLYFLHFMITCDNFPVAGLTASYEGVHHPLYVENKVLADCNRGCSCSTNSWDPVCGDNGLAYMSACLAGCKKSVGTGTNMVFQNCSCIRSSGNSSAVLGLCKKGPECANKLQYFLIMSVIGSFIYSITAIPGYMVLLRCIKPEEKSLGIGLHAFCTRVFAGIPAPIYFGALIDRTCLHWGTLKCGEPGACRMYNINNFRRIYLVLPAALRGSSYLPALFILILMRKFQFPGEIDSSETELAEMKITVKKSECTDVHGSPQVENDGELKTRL

[3] = molecular target: T2, Solute carrier organic anion transporter family member 1A5; test: TP_TRANSPORTER: inhibition of Taurocholate uptake (Taurocholate: 10 uM, DIDS: 1000 uM) in Oatp3-expressing MDCK cells; conditions: dog
[4] = substrate: C[C@H](CCC(=O)NCC(=O)O)[C@H]1CC[C@H]2[C@@H]3CC[C@@H]4C[C@H](O)CC[C@]4(C)[C@H]3C[C@H](O)[C@]12C; test: (§1) TP_TRANSPORTER: uptake in Oatp3-expressing MDCK cells
[5] = substrate: C[C@H](CCC(=O)NCC(=O)O)[C@H]1CC[C@H]2[C@@H]3[C@@H](O)C[C@@H]4C[C@H](O)CC[C@]4(C)[C@H]3CC[C@]12C; test: as §1
[6] = substrate: C[C@H](CCC(=O)NCC(=O)O)[C@H]1CC[C@H]2[C@@H]3[C@H](O)C[C@@H]4C[C@H](O)CC[C@]4(C)[C@H]3CC[C@]12C; test: as §1
[7] = substrate: C[C@H](CCC(=O)NCC(=O)O)[C@H]1CC[C@H]2[C@@H]3[C@H](O)C[C@@H]4C[C@H](O)CC[C@]4(C)[C@H]3C[C@H](O)[C@]12C; test: as §1
[8] = substrate: C[C@H](CCC(=O)NCCS(=O)(=O)O)[C@H]1CC[C@H]2[C@@H]3CC[C@@H]4C[C@H](O)CC[C@]4(C)[C@H]3C[C@H](O)[C@]12C; test: as §1
[9] = substrate: C[C@H](CCC(=O)NCCS(=O)(=O)O)[C@H]1CC[C@H]2[C@@H]3[C@@H](O)C[C@@H]4C[C@H](O)CC[C@]4(C)[C@H]3CC[C@]12C; test: as §1
[10] = substrate: C[C@H](CCC(=O)NCCS(=O)(=O)O)[C@H]1CC[C@H]2[C@@H]3[C@H](O)C[C@@H]4C[C@H](O)CC[C@]4(C)[C@H]3CC[C@]12C; test: as §1

C[C@H](CCC(=O)NCCS(=O)(=O)O)[C@H]1CC[C@H]2[C@@H]3CC[C@@H]4C[C@H](O)CC[C@]4(C)[C@H]3C[C@H](O)[C@]12C [TAURODEOXYCHOLIC ACID] was tested, and the Activity [1] was “substrate [+]” and the Activity [2] was “substrate [+]”.

With C[C@H](CCC(=O)NCC(=O)O)[C@H]1CC[C@H]2[C@@H]3[C@H](O)C[C@@H]4C[C@H](O)CC[C@]4(C)[C@H]3CC[C@]12C [GLYCOCHENODEOXYCHOLATE] the Activity [1] was “substrate [+]” and the Activity [2] was “substrate [+]”.

With C[C@H](CCC(=O)NCCS(=O)(=O)O)[C@H]1CC[C@H]2[C@@H]3[C@H](O)C[C@@H]4C[C@H](O)CC[C@]4(C)[C@H]3CC[C@]12C [TAUROCHENODEOXYCHOLATE] the Activity [1] was “substrate [+]” and the Activity [2] was “substrate [+]”.

In the case of C[C@H](CCC(=O)NCC(=O)O)[C@H]1CC[C@H]2[C@@H]3[C@H](O)C[C@@H]4C[C@H](O)CC[C@]4(C)[C@H]3C[C@H](O)[C@]12C [GLYCOCHOLIC ACID], the Activity [1] is reported as “substrate [+]” and the Activity [2] is reported as “substrate [+]”.

For O=S(=O)(O)c1cc(N=C=S)ccc1/C=C/c1ccc(NC=S)cc1S(=O)(=O)O, the Activity [3] was “inhibitor [(at a rough estimate) 15 % of control]”.

In the case of C[C@H](CCC(=O)NCC(=O)O)[C@H]1CC[C@H]2[C@@H]3CC[C@@H]4C[C@H](O)CC[C@]4(C)[C@H]3C[C@H](O)[C@]12C [GLYCODEOXYCHOLATE], the Activity [1] is reported as “substrate [+]” and the Activity [2] is reported as “substrate [+]”.

With C[C@H](CCC(=O)NCC(=O)O)[C@H]1CC[C@H]2[C@@H]3[C@@H](O)C[C@@H]4C[C@H](O)CC[C@]4(C)[C@H]3CC[C@]12C [GLYCOURSODEOXYCHOLIC ACID] the Activity [1] was “substrate [+]” and the Activity [2] was “substrate [+]”.

For C[C@H](CCC(=O)NCCS(=O)(=O)O)[C@H]1CC[C@H]2[C@@H]3[C@@H](O)C[C@@H]4C[C@H](O)CC[C@]4(C)[C@H]3CC[C@]12C [TAURURSODIOL], the Activity [1] was “substrate [+]” and the Activity [2] was “substrate [+]”.

B1: Solute carrier organic anion transporter family member 1A5 (Rattus norvegicus) (protein)
chain: MGETEKRVATHEVRCFSKIKMFLLALTWAYVSKSLSGIYMNTMLTQIERQFDIPTSIVGFINGSFEIGNLLLIIFVSYFGTKLHRPIMIGVGCVIMGLGCFLMSLPHFLMGRYEYETTISPTSNLSSNSFLCMENRSQTLKPTQDPAECIKEMKSLMWIYVLVGNIIRGIGETPIMPLGISYIEDFAKSENSPLYIGILETGKVFGPIVGLLLGSFCASIYVDTGSVNTDDLTITPTDTRWVGAWWIGFLICAGVNILSSIPFFFFPKTLPKEGLQDDVDGTNNDKEEKHREKAKEENRGITKDFLPFMKSLSCNPIYMLLILTSVLQINAFINMFTFLPKYLEQQYGKSTAEVVLLIGVYNLPPICIGYLLIGFIMKKFKITVKKAAYMAFCLSLFEYLLYFLHFMITCDNFPVAGLTASYEGVHHPLYVENKVLADCNRGCSCSTNSWDPVCGDNGLAYMSACLAGCKKSVGTGTNMVFQNCSCIRSSGNSSAVLGLCKKGPECANKLQYFLIMSVIGSFIYSITAIPGYMVLLRCIKPEEKSLGIGLHAFCTRVFAGIPAPIYFGALIDRTCLHWGTLKCGEPGACRMYNINNFRRIYLVLPAALRGSSYLPALFILILMRKFQFPGEIDSSETELAEMKITVKKSECTDVHGSPQVENDGELKTRL
In the case of B1, the Km [4] is reported as 4.3 µM, the Km [5] is reported as 5.3 µM and the Km [6] is reported as 5.6 µM. The Km [7] was 15.4 µM, the Km [8] was 5.8 µM and the Km [9] was 6.6 µM. The Km [10] was 7 µM.
